{"source": "patent US20150010928A1", "about": "“MEANS AND METHODS FOR ASSESSING AN ENDOCRINE DISEASE OR DISORDER” (priority 2012, published 2015)", "test_system": "female rats", "experiment": "Plasma metabolite profiling (GC-MS, LC-MS, SPE-LC-MS) in female rats dosed once daily over 28 days (OECD 407)", "format": "in vivo, rat", "details": "high dose", "in_short": "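Metabolites were measured by GC-MS (derivatised) and reversed-phase LC-MS, with steroids by online SPE-LC-MS, in plasma drawn from fasted rats on days 7, 14 and 28 of once-daily dosing (5/sex/group). Values are ratios versus sex-matched untreated controls, normalized to pool samples, with Welch-test p-values.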", "note": "Marks after values point to notes of the source that are not given here.", "data": [{"smiles": "C[C@@H]1CC2=CC(=O)CC[C@@H]2[C@H]2CC[C@@]3(C)[C@@H](CC[C@]3(C)O)[C@@H]21", "note": "[Mibolerone]", "values": [{"measurement": "3-Hydroxybutyrate", "setting": "f7, female rats, Table 15a", "result": "1.36 *"}, {"measurement": "DAG (C18:1,C18:2)", "setting": "f7, female rats, Table 15a", "result": 0.43}, {"measurement": "Glutamate", "setting": "f7, female rats, Table 15a", "result": "1.66 *"}, {"measurement": "Glycine", "setting": "f7, female rats, Table 15a", "result": "1.19 *"}, {"measurement": "Phosphatidylcholine (C16:0,C20:5)", "setting": "f7, female rats, Table 15a", "result": 0.56}, {"measurement": "TAG (C16:0,C16:1)", "setting": "f7, female rats, Table 15a", "result": 2.26}, {"measurement": "TAG (C16:0,C18:1,C18:3)", "setting": "f7, female rats, Table 15a", "result": 1.22}, {"measurement": "TAG (C16:0,C18:2)", "setting": "f7, female rats, Table 15a", "result": 0.87}, {"measurement": "TAG (C18:1,C18:2)", "setting": "f7, female rats, Table 15a", "result": 0.77}, {"measurement": "TAG (C18:2,C18:2)", "setting": "f7, female rats, Table 15a", "result": 0.9}, {"measurement": "TAG (C18:3, C18:2, C18:1)", "setting": "f7, female rats, Table 15a", "result": 0.99}, {"measurement": "TAG (DAG-Fragment)", "setting": "f7, female rats, Table 15a", "result": 0.95}, {"measurement": "TAG No 059", "setting": "f7, female rats, Table 15a", "result": "1.08 *"}, {"measurement": "Threonic acid", "setting": "f7, female rats, Table 15a", "result": "1.15 *"}, {"measurement": "trans-4-Hydroxyproline", "setting": "f7, female rats, Table 15a", "result": "1.8 *"}, {"measurement": "Androstenedione", "setting": "f7, female rats, Table 15b", "result": "0.14 *"}, {"measurement": "Arginine", "setting": "f7, female rats, Table 15b", "result": "0.85 *"}, {"measurement": "Campesterol", "setting": "f7, female rats, Table 15b", "result": 0.16}, {"measurement": "Ceramide (d18:1,C24:0)", "setting": "f7, female rats, Table 15b", "result": "0.12 *"}, {"measurement": "Lactate", "setting": "f7, female rats, Table 15b", "result": "0.62 *"}, {"measurement": "Lysine", "setting": "f7, female rats, Table 15b", "result": "0.68 *"}, {"measurement": "Metanephrine", "setting": "f7, female rats, Table 15b", "result": "0.62 *"}, {"measurement": "Normetanephrine", "setting": "f7, female rats, Table 15b", "result": 1.15}, {"measurement": "Phosphatidylcholine (C16:0,C20:5)", "setting": "f7, female rats, Table 15b", "result": "0.56 *"}, {"measurement": "Phosphatidylcholine (C16:0,C22:6)", "setting": "f7, female rats, Table 15b", "result": "0.18 *"}, {"measurement": "Phosphatidylcholine (C18:0, C20:3)", "setting": "f7, female rats, Table 15b", "result": "0.2 *"}, {"measurement": "Phosphatidylcholine (C18:0,C18:1)", "setting": "f7, female rats, Table 15b", "result": "0.21 *"}, {"measurement": "Progesterone", "setting": "f7, female rats, Table 15b", "result": 0.62}, {"measurement": "Pyruvate", "setting": "f7, female rats, Table 15b", "result": "0.75 *"}, {"measurement": "Sphingomyelin (d18:1,C23:0)", "setting": "f7, female rats, Table 15b", "result": "0.06 *"}, {"measurement": "Sphingomyelin (d18:1,C24:0)", "setting": "f7, female rats, Table 15b", "result": "0.11 *"}, {"measurement": "Urea", "setting": "f7, female rats, Table 15b", "result": "0.65 *"}, {"measurement": "3-Hydroxybutyrate", "setting": "f14, female rats, Table 15a", "result": "1.73 *"}, {"measurement": "DAG (C18:1,C18:2)", "setting": "f14, female rats, Table 15a", "result": "2.88 *"}, {"measurement": "Glutamate", "setting": "f14, female rats, Table 15a", "result": "1.67 *"}, {"measurement": "Glycine", "setting": "f14, female rats, Table 15a", "result": "1.22 *"}, {"measurement": "Phosphatidylcholine (C16:0,C20:5)", "setting": "f14, female rats, Table 15a", "result": "1.54 *"}, {"measurement": "TAG (C16:0,C16:1)", "setting": "f14, female rats, Table 15a", "result": "12.22 *"}, {"measurement": "TAG (C16:0,C18:1,C18:3)", "setting": "f14, female rats, Table 15a", "result": "8.88 *"}, {"measurement": "TAG (C16:0,C18:2)", "setting": "f14, female rats, Table 15a", "result": "6.82 *"}, {"measurement": "TAG (C18:1,C18:2)", "setting": "f14, female rats, Table 15a", "result": "8.37 *"}, {"measurement": "TAG (C18:2,C18:2)", "setting": "f14, female rats, Table 15a", "result": "6.69 *"}, {"measurement": "TAG (C18:3, C18:2, C18:1)", "setting": "f14, female rats, Table 15a", "result": "5.98 *"}, {"measurement": "TAG (DAG-Fragment)", "setting": "f14, female rats, Table 15a", "result": "7.86 *"}, {"measurement": "TAG No 059", "setting": "f14, female rats, Table 15a", "result": "4.67 *"}, {"measurement": "Threonic acid", "setting": "f14, female rats, Table 15a", "result": "1.18 *"}, {"measurement": "trans-4-Hydroxyproline", "setting": "f14, female rats, Table 15a", "result": "2.44 *"}, {"measurement": "Androstenedione", "setting": "f14, female rats, Table 15b", "result": "0.11 *"}, {"measurement": "Arginine", "setting": "f14, female rats, Table 15b", "result": "0.98 *"}, {"measurement": "Campesterol", "setting": "f14, female rats, Table 15b", "result": 0.89}, {"measurement": "Ceramide (d18:1,C24:0)", "setting": "f14, female rats, Table 15b", "result": "2.02 *"}, {"measurement": "Lactate", "setting": "f14, female rats, Table 15b", "result": "0.74 *"}, {"measurement": "Lysine", "setting": "f14, female rats, Table 15b", "result": "0.63 *"}, {"measurement": "Metanephrine", "setting": "f14, female rats, Table 15b", "result": "0.72 *"}, {"measurement": "Normetanephrine", "setting": "f14, female rats, Table 15b", "result": "0.66 *"}, {"measurement": "Phosphatidylcholine (C16:0,C20:5)", "setting": "f14, female rats, Table 15b", "result": 1.54}, {"measurement": "Phosphatidylcholine (C16:0,C22:6)", "setting": "f14, female rats, Table 15b", "result": "0.84 *"}, {"measurement": "Phosphatidylcholine (C18:0, C20:3)", "setting": "f14, female rats, Table 15b", "result": 0.98}, {"measurement": "Phosphatidylcholine (C18:0,C18:1)", "setting": "f14, female rats, Table 15b", "result": 0.93}, {"measurement": "Progesterone", "setting": "f14, female rats, Table 15b", "result": "0.13 *"}, {"measurement": "Pyruvate", "setting": "f14, female rats, Table 15b", "result": "0.83 *"}, {"measurement": "Sphingomyelin (d18:1,C23:0)", "setting": "f14, female rats, Table 15b", "result": 1.26}, {"measurement": "Sphingomyelin (d18:1,C24:0)", "setting": "f14, female rats, Table 15b", "result": "1.33 *"}, {"measurement": "Urea", "setting": "f14, female rats, Table 15b", "result": "0.48 *"}, {"measurement": "3-Hydroxybutyrate", "setting": "f28, female rats, Table 15a", "result": 1.06}, {"measurement": "DAG (C18:1,C18:2)", "setting": "f28, female rats, Table 15a", "result": "2.27 *"}, {"measurement": "Glutamate", "setting": "f28, female rats, Table 15a", "result": "1.73 *"}, {"measurement": "Glycine", "setting": "f28, female rats, Table 15a", "result": "1.18 *"}, {"measurement": "Phosphatidylcholine (C16:0,C20:5)", "setting": "f28, female rats, Table 15a", "result": "1.32 *"}, {"measurement": "TAG (C16:0,C16:1)", "setting": "f28, female rats, Table 15a", "result": "5.83 *"}, {"measurement": "TAG (C16:0,C18:1,C18:3)", "setting": "f28, female rats, Table 15a", "result": "6.23 *"}, {"measurement": "TAG (C16:0,C18:2)", "setting": "f28, female rats, Table 15a", "result": "4.89 *"}, {"measurement": "TAG (C18:1,C18:2)", "setting": "f28, female rats, Table 15a", "result": "4.95 *"}, {"measurement": "TAG (C18:2,C18:2)", "setting": "f28, female rats, Table 15a", "result": "4.92 *"}, {"measurement": "TAG (C18:3, C18:2, C18:1)", "setting": "f28, female rats, Table 15a", "result": "4.74 *"}, {"measurement": "TAG (DAG-Fragment)", "setting": "f28, female rats, Table 15a", "result": "5.74 *"}, {"measurement": "TAG No 059", "setting": "f28, female rats, Table 15a", "result": "3.5 *"}, {"measurement": "Threonic acid", "setting": "f28, female rats, Table 15a", "result": "1.94 *"}, {"measurement": "trans-4-Hydroxyproline", "setting": "f28, female rats, Table 15a", "result": "2 *"}, {"measurement": "Androstenedione", "setting": "f28, female rats, Table 15b", "result": "0.07 *"}, {"measurement": "Arginine", "setting": "f28, female rats, Table 15b", "result": "0.83 *"}, {"measurement": "Campesterol", "setting": "f28, female rats, Table 15b", "result": "0.54 *"}, {"measurement": "Ceramide (d18:1,C24:0)", "setting": "f28, female rats, Table 15b", "result": "1.53 *"}, {"measurement": "Lactate", "setting": "f28, female rats, Table 15b", "result": "0.73 *"}, {"measurement": "Lysine", "setting": "f28, female rats, Table 15b", "result": "0.57 *"}, {"measurement": "Metanephrine", "setting": "f28, female rats, Table 15b", "result": "0.66 *"}, {"measurement": "Normetanephrine", "setting": "f28, female rats, Table 15b", "result": "0.78 *"}, {"measurement": "Phosphatidylcholine (C16:0,C20:5)", "setting": "f28, female rats, Table 15b", "result": 1.32}, {"measurement": "Phosphatidylcholine (C16:0,C22:6)", "setting": "f28, female rats, Table 15b", "result": "0.74 *"}, {"measurement": "Phosphatidylcholine (C18:0, C20:3)", "setting": "f28, female rats, Table 15b", "result": "0.91 *"}, {"measurement": "Phosphatidylcholine (C18:0,C18:1)", "setting": "f28, female rats, Table 15b", "result": 0.86}, {"measurement": "Progesterone", "setting": "f28, female rats, Table 15b", "result": "0.06 *"}, {"measurement": "Pyruvate", "setting": "f28, female rats, Table 15b", "result": "0.65 *"}, {"measurement": "Sphingomyelin (d18:1,C23:0)", "setting": "f28, female rats, Table 15b", "result": "0.63 *"}, {"measurement": "Sphingomyelin (d18:1,C24:0)", "setting": "f28, female rats, Table 15b", "result": 1.05}, {"measurement": "Urea", "setting": "f28, female rats, Table 15b", "result": "0.88 *"}]}]}
